The values that follow come from ChEMBL document CHEMBL1201862, “PubChem BioAssay data set” (2004).

Molecules are shown by their SMILES. Activity calls are given as the source filed them.

Common to all, as to type: functional
In assay [1] the target is T1, High affinity choline transporter 1 (Homo sapiens, UniProt Q9GZV3).
T1 sequence (Q9GZV3 whole entry): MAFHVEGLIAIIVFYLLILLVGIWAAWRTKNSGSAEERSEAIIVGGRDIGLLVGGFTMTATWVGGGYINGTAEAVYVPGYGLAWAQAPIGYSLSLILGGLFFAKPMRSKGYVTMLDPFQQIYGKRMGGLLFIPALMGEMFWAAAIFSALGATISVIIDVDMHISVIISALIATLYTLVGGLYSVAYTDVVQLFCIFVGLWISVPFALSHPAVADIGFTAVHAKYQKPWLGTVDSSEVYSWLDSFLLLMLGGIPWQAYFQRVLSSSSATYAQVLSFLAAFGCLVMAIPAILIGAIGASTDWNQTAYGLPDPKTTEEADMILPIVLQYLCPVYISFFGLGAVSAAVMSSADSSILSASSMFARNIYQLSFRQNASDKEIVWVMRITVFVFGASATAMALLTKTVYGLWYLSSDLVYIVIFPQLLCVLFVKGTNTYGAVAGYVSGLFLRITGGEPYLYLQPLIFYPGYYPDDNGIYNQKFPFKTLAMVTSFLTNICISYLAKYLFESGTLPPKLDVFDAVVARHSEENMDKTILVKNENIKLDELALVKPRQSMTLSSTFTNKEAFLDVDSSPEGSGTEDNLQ
Put plainly: CHT inhibitors, dose response, cell-based, 5-point CRC, membrane potential dye (AID 504840).

The target of assay [2] is T1, High affinity choline transporter 1. In words: CHT inhibitors, dose response, cell-based, 10-point CRC, membrane potential dye (AID 588401).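 Further: membrane potential dye fluorescence of choline-evoked depolarization via CHT.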
The nature of assay [3]: Luminescence Cell-Based Dose Retest to Confirm Inhibitors of Cancer Stem Cells. [Related pubchem assays (depositor defined):AID2717, AID2721]. The following applies: Homo sapiens.
The target in assay [4] is T2, Ubiquitin-conjugating enzyme E2 N (Homo sapiens, UniProt P61088).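 Further: Dose-response confirmation in a TR-FRET assay detecting UBC13-driven polyubiquitin chain formation, inhibition measured.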
T2 sequence (P61088 whole entry): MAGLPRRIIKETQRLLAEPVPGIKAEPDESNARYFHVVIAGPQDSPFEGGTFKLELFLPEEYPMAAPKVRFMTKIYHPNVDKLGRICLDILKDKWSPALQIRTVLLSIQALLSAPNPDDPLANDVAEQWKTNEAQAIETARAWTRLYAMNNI

For assay [5], the target named is T3, Multidrug resistance protein CDR2 (Candida albicans (strain SC5314 / ATCC MYA-2876) (Yeast), UniProt P78595). In words: CaCDR2 efflux pump inhibitors in yeast, dose response, S. cerevisiae AD1-8u, singleplex, Cherry Pick1 hits (AID 588604).
Assay [6] concerns the target Multidrug resistance protein CDR1 (Candida albicans, UniProt P43071). Put plainly: CaCdr1 efflux pump inhibitor potency, dose response, singleplex, Cherry Pick2 set (AID 623996). The following applies: read-out: EC50_MICROM.
The target of assay [7] is T3, Multidrug resistance protein CDR2. Put plainly: CaCDR2 efflux pump inhibitors in yeast, dose response, S. cerevisiae AD1-8u, singleplex, Cherry Pick2 set (AID 623994). The following applies: read-out: EC50_MICROM.
For assay [8], the target named is Benomyl/methotrexate resistance protein (Candida albicans, UniProt P28873). In words: CaMdr1 efflux pump inhibitor potency, dose response, singleplex, Cherry Pick2 set (AID 623992). The following applies: read-out: EC50_MICROM.
Assay [9] deals with Melanin-concentrating hormone receptor 1 (Homo sapiens, UniProt Q99705). Put plainly: Late-stage fluorescence-based counterscreen for antagonists of the G-protein coupled receptor 7 (GPR7): cell-based dose response assay to identify antagonists of the melanin-concentrating hormone receptor 1 (MCHR1) Set 6. In general terms: The purpose of a counterscreen is to sort out artefacts and off-target activity.

In assay [10] the target is Neuropeptides B/W receptor type 1 (Homo sapiens, UniProt P48145). Put plainly: GPR7 antagonist potency, late-stage follow-up, cell-based, fluorescence, dose response, set 6 (AID 588583).
Assay [11] has as its target ALK tyrosine kinase receptor (Homo sapiens, UniProt Q9UM73).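 Further: ALK tested as one member of a kinase panel screen.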
In assay [12] the target is Proto-oncogene tyrosine-protein kinase receptor Ret (Homo sapiens, UniProt P07949).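 Further: measured within a kinome-wide profiling panel, RET as the panel member.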
In assay [13] the target is Tyrosine-protein kinase Lck (Homo sapiens, UniProt P06239).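 Further: lck was assayed as one member of a kinase panel.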
In assay [14] the target is Tyrosine-protein kinase BTK (Homo sapiens, UniProt Q06187).
Assay [15] deals with Serine/threonine-protein kinase TAO1 (Homo sapiens, UniProt Q7L7X3).
In a further assay the target is Focal adhesion kinase 1 (Homo sapiens, UniProt Q05397).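 Further: measured as one member of a kinome panel.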
Assay [16] addresses Platelet-derived growth factor receptor alpha (Homo sapiens, UniProt P16234). Put plainly: Navigating the Kinome. Panel member name: PDGFRA.
Assay [17] has as its target Tyrosine-protein kinase Fyn (Homo sapiens, UniProt P06241).
Assay [18] deals with Cyclin-dependent kinase 8 (Homo sapiens, UniProt P49336). In words: Navigating the Kinome. Panel member name: CDK8.
Assay [19] addresses Calcium/calmodulin-dependent protein kinase type II subunit alpha (Homo sapiens, UniProt Q9UQM7). In words: Navigating the Kinome. Panel member name: CAMK2A.
In assay [20] the target is Dual specificity tyrosine-phosphorylation-regulated kinase 1B (Homo sapiens, UniProt Q9Y463). Put plainly: Navigating the Kinome. Panel member name: DYRK1B.
Assay [21] addresses Glycogen synthase kinase-3 beta (Homo sapiens, UniProt P49841).
For assay [22], the target named is Cyclin-dependent kinase 9 (Homo sapiens, UniProt P50750).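 Further: value from the CDK9 entry of a kinome-spanning kinase panel.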
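Wherever AC50 is given: cells exposed to compound for roughly 70 hours or longer before luminescence read.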

T3 sequence (P78595 whole entry): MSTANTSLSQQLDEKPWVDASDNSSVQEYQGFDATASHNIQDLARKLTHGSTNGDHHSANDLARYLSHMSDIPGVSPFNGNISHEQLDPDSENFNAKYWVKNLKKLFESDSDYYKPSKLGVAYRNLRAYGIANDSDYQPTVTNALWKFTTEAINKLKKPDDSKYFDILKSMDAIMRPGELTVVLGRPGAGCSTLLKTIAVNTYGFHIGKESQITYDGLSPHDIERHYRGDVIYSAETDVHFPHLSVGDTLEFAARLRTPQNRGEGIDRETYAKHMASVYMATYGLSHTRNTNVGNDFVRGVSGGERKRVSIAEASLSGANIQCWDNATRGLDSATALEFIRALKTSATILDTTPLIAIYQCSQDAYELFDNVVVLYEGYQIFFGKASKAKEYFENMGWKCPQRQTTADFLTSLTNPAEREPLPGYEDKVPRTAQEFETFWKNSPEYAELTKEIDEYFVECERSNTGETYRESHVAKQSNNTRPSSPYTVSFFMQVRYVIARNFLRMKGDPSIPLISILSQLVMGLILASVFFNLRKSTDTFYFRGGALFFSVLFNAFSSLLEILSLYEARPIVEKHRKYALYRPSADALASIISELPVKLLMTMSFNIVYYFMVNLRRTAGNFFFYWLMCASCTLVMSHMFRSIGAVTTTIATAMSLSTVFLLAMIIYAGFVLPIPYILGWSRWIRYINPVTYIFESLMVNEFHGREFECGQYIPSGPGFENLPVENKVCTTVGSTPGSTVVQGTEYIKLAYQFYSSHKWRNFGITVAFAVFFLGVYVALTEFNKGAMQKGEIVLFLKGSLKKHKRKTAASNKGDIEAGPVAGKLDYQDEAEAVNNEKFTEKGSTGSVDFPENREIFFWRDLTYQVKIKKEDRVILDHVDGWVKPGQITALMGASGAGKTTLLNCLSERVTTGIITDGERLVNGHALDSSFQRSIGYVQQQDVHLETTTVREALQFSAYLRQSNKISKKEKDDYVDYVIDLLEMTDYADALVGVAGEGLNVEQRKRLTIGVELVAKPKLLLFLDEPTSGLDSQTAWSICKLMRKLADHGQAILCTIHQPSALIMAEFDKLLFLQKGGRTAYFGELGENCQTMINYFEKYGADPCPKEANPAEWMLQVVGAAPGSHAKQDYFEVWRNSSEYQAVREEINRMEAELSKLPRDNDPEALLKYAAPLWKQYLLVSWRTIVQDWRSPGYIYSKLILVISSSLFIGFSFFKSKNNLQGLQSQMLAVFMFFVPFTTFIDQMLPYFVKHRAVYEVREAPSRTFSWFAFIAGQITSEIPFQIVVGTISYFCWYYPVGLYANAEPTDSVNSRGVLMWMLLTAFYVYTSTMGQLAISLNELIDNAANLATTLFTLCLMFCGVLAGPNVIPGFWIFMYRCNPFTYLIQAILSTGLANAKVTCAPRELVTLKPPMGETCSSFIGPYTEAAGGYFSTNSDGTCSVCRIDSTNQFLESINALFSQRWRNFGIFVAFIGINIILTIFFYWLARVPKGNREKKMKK
Chain of Glycogen synthase kinase-3 beta (P49841 whole entry): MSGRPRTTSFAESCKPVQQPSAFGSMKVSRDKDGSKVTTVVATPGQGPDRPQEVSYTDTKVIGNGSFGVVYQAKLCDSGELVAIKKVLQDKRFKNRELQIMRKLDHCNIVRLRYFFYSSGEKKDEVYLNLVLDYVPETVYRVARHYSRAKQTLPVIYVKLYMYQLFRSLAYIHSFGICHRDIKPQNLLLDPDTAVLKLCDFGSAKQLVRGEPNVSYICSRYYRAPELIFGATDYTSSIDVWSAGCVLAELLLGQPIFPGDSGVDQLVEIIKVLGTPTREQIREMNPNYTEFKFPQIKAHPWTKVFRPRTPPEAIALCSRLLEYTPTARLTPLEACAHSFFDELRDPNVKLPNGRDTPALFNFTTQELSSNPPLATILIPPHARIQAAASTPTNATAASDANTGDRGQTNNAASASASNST
Chain of Benomyl/methotrexate resistance protein (P28873 whole entry): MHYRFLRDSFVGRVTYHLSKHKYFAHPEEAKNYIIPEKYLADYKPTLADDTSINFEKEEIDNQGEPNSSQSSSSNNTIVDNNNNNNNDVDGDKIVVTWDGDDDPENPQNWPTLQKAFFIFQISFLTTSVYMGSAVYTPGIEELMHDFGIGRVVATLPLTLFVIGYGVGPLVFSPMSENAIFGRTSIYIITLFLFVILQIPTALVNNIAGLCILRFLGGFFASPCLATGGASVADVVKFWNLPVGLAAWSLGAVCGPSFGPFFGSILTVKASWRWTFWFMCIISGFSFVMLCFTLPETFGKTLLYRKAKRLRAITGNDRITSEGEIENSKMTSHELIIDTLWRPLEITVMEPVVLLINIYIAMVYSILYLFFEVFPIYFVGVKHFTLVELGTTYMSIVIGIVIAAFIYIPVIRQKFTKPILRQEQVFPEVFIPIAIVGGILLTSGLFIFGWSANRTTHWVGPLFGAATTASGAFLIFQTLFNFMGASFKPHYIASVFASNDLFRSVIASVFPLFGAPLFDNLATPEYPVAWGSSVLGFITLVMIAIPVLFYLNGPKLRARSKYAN
Chain of Neuropeptides B/W receptor type 1 (P48145 whole entry): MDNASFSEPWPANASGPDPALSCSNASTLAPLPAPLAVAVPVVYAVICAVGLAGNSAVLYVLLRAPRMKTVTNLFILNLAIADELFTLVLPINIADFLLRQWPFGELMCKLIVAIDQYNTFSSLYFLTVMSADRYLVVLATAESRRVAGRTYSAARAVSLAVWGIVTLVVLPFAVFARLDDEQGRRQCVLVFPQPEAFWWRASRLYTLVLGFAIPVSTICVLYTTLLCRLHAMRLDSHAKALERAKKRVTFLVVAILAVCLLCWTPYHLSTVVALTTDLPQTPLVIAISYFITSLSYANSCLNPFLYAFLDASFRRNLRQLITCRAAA
Chain of Tyrosine-protein kinase Fyn (P06241 whole entry): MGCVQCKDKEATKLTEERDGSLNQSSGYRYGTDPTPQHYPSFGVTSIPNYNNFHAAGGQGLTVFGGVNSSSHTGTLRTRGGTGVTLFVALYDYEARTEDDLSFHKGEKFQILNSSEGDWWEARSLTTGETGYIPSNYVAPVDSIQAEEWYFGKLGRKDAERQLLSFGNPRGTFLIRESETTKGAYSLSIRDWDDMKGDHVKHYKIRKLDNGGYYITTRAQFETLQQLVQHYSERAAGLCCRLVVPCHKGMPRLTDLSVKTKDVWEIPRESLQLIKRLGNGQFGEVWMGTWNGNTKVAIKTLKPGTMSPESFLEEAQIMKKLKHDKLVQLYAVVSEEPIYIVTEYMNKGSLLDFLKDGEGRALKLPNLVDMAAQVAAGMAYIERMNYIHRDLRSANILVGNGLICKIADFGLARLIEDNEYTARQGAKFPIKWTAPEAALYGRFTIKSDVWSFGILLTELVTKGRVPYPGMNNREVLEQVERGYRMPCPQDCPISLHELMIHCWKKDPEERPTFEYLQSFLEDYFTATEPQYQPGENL
Chain of Multidrug resistance protein CDR1 (P43071 whole entry, looked up): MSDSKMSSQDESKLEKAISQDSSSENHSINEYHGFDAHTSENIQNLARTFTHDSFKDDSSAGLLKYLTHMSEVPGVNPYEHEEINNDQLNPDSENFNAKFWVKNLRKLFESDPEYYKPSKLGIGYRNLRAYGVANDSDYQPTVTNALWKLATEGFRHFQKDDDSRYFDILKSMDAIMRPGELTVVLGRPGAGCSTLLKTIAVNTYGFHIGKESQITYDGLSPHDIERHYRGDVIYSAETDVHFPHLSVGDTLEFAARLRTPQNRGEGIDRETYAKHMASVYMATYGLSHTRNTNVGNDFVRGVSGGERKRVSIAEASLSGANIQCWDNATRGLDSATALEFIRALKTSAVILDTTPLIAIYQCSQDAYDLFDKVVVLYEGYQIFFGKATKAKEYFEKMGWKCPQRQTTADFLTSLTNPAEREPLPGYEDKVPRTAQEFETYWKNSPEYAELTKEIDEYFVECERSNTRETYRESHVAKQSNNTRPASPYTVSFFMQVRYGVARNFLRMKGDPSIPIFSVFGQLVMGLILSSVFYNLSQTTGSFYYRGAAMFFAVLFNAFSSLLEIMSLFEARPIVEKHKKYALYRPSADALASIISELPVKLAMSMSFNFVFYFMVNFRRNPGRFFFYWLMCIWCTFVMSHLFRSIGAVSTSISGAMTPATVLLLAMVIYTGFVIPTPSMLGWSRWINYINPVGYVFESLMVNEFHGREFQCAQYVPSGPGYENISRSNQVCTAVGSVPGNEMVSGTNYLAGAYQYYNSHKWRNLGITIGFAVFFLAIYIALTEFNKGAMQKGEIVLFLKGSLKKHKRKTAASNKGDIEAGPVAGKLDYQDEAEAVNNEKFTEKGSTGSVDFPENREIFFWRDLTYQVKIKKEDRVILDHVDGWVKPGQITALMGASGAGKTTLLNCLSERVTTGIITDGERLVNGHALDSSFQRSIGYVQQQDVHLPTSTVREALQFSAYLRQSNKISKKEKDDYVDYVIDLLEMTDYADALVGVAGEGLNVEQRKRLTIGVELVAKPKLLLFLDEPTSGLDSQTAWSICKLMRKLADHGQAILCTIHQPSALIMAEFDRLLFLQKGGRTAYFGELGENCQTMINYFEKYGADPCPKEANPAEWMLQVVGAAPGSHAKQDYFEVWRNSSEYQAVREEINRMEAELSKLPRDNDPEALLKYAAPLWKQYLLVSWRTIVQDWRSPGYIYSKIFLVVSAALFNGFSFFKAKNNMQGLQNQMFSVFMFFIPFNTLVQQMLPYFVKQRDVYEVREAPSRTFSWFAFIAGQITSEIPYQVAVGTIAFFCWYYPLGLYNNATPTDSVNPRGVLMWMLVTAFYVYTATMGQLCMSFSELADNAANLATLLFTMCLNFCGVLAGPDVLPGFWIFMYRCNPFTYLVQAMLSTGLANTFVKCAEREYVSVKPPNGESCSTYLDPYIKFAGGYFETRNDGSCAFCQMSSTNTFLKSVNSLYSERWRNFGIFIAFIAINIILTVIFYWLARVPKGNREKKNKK

In the case of `CC1=NOC(=O)/C1=C/c1ccc(O)c(Br)c1`, the IC50 (usually the concentration that gives 50% inhibition) is 4.77 µM (active) in assay [1] and 3.98 µM (active) in [2].

As to `COc1ccc2sc(-c3ccccc3OC)c(-c3ccc(OCCN4CCCC4)cc3)c2c1`, the half-maximal activity concentration (AC50) (as a rule, the concentration giving half of the maximal activity seen) in assay [3] is 5.62 µM (active). Further, the IC50 in [4] was > 20 µM (inactive). Also, the EC50 in assay [5] was 0.87 µM (active); in [6], 23.6 µM (active); in assay [7], 0.958 µM (active); in [8], 50.2 µM (active).

As to `N#CC(c1ccccc1)c1c(Cl)cnn(Cc2ccc3ccccc3c2)c1=O` (stereo not drawn), the IC50 in assay [9] and in [10] was 3.04 µM (active) in each case.

With `CC(C)(C)c1cc(NC(=O)Nc2cccc3ccccc23)n(-c2cccc(C(=O)N(CCN)CCO)c2)n1`, the Ki – broadly, a dissociation constant, usually derived from enzyme kinetics or from competition with a known ligand – in assay [11] is > 6.31 µM (inactive); in assay [12], 1.26 µM (active); in [13], > 6.31 µM (inactive); in assay [14], > 6.31 µM (inactive); in assay [15], 2.51 µM (active); at Focal adhesion kinase 1 it was > 6.31 µM (inactive). Further, the Ki is 0.794 µM (active) in assay [16], > 6.31 µM (inactive) in [17], 3.16 µM (active) in [18] and > 7.94 µM (inactive) in [19].

Take `CC1c2cccn2CCN1Cc1nc2scc(-c3ccco3)c2c(=O)[nH]1` (stereo not drawn): the Ki in [20] is 2.51 µM (active); in [21], 3.16 µM (active); in assay [22], 1.58 µM (active).
